Patent publication US20190337924A1, “SUBSTITUTED HYDANTOIN AND THIOHYDANTOIN DERIVATIVES AS ANDROGEN RECEPTOR ANTAGONISTS” (Janssen Pharmaceutica NV, priority 2016, published 2019)
Counter-ions that a name gives are not always drawn. Like-named read-outs stand apart in the source and are kept apart here.

Tests used:
[1] = biological target: T1, wild-type Androgen Receptor (AR-wt) (Homo sapiens, UniProt P10275); assay: AR reporter assay, LNCaP-AR-wt AG (agonist mode); assay type: cell-based; settings: for Emax: read-out: LNCaP-AR-wt AG MAX % Stim
T1 construct: expressed in transfected cells; host or cells: LNCaP
T1 sequence (P10275 1-920): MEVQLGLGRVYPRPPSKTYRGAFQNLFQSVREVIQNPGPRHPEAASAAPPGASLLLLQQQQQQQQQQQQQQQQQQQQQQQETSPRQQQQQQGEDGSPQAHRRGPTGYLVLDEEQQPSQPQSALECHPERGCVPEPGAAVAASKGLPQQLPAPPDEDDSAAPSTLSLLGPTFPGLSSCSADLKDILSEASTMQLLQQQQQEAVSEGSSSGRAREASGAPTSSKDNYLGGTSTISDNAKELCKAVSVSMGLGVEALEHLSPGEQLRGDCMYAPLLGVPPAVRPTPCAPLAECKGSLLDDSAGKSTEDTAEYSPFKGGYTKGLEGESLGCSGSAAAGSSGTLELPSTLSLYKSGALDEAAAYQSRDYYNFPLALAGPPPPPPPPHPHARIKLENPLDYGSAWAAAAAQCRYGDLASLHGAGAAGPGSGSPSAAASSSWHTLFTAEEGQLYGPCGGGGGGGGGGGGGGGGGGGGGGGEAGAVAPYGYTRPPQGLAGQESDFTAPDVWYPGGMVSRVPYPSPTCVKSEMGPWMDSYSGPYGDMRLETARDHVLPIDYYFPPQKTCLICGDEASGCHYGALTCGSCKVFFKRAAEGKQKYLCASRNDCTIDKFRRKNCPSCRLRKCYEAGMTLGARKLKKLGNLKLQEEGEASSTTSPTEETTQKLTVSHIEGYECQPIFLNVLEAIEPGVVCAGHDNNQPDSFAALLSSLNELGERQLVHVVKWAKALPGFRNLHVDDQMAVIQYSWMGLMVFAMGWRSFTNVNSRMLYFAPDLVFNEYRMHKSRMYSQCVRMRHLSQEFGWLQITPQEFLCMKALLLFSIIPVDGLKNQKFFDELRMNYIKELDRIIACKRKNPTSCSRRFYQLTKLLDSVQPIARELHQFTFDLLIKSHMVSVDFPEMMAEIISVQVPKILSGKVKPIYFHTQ
Description: (§1) LNCaP AR (cs) and LNCaP F876L luciferase cell lines were generated by transduction of each cell line (description of cell line generation Joseph J D, Lu N, Qian J, Sensintaffar J, Shao G, Brigham D, Moon M, Maneval E C, Chen I, Darimont B, Hager J H. A clinically relevant androgen receptor mutation confers resistance to second-generation antiandrogens enzalutamide and ARN-509. Cancer Discov 2013; 3:1020-1029) with an Androgen Response Element Firefly Luciferase lentiviral construct at an MOI (multiplicity of infection) of 50 following the manufacturer's instructions (Qiagen). A stable pooled-population cell line was generated using puromycin (Life Technologies) selection at 1:10,000 v/v. The protocol below was used for both cell lines and for testing of the compounds of Formula (I) of the present invention.
(§2) LNCaP cells were grown to about 80% confluence, media removed and cells rinsed in Hank's balanced salt solution prior to separation from the plate with 0.05% Trypsin EDTA. Cells were lifted and trypsin negated in complete CSS (charcoal stripped serum) culture media. CSS was maintained on cells for 24 h prior to assay, at which time 5,000 cells/[…] were seeded in Greiner 384 well White/White Tissue Culture Treated Plates and incubated for a further 1-2 hours at 37° C., 5% CO2, prior to addition of 10 μL of 4× Test Compounds (compounds described herein) or Assay Controls (all diluted in complete media containing 10% css). A further 10 μL of 4× R-1881 Agonist Challenge (antagonist assay) or Buffer (agonist assay) was then added (all diluted in complete media containing 10% css). Agonist challenge was at 400 pM for WT assay and 600 pM for F876L assay. Plates containing cells and compounds herein were incubated for a further 20-24 hours at 37° C., 5% CO2 before addition of 40 μL/well of Steady-Glo Luciferase Assay System Reagent (Promega#E2520). After 1 h, plates were read for luminescence on a BMG Pherastar.
((Sample RLU−Ave Low Control RLU[DMSO/Buffer])/(Ave High Control RLU [1 μM R-1881]—Ave Low Control RLU[DMSO/Buffer]))*100.
(§3) EC/IC50 calculations were achieved utilizing calculated RLU data and data fitting macros. Data were fit using least-squares methods to the following formula: […]
(§4) As used herein: • pIC50 is defined as −Log10(IC50 expressed in [Molar]). • pEC50 is defined as −Log10(EC50 expressed in [Molar]). • MAX % Inh is defined as the maximum % inhibition of R1881 control response observed for a compound over the tested concentration range. • MAX % Stim is defined as the maximum % stimulation (agonist response) observed for a compound over the tested concentration range. • LNCaP-AR-wt ANT refers to the reporter assay using LNCaP cells stably transfected with the Androgen Response Element Firefly Luciferase lentiviral construct and wild-type Androgen Receptor (AR-wt) in Antagonist mode. • LNCaP-AR-wt AG refers to the reporter assay using LNCaP cells stably transfected with the Androgen Response Element Firefly Luciferase lentiviral construct and wild-type Androgen Receptor (AR-wt) in Agonist mode. • LNCaP-AR-F876L ANT refers to the reporter assay using LNCaP cells stably transfected with the Androgen Response Element Firefly Luciferase lentiviral construct and F876L mutant Androgen Receptor (AR-F876L) in Antagonist mode. • LNCaP-AR-F876L AG refers to the reporter assay using LNCaP cells stably transfected with the Androgen Response Element Firefly Luciferase lentiviral construct and F876L mutant Androgen Receptor (AR-F876L) in Agonist mode.

[2] = biological target: T1, wild-type Androgen Receptor (AR-wt); assay: AR reporter assay, LNCaP-AR-wt ANT (antagonist mode); assay type: cell-based; settings: for Emax: read-out: LNCaP-AR-wt ANT MAX % Inh
Description: as §1, §2
Agonist challenge: R-1881 (Metribolone)—Agonist
Antagonist control (low control): 5-(5-(4-((1-Methylpiperidin-4-yl)oxy)phenyl)-8-oxo-6-thioxo-5,7-diazaspiro[3.4]octan-7-yl)-3-(trifluoromethyl)picolinonitrile (WO 2011/103202, EXAMPLE 19, Compound 129, CAS #1332390-06-3).
(1−(Sample RLU−Ave Low Control RLU[10 μM Antagonist Control])/(Ave High Control RLU [400 pM R-1881]−Ave Low Control RLU[10 μM Antagonist Control]))*100.
as §3, §4

[3] = antagonist mode, 400 pM R-1881 challenge, luciferase reporter, -Log10(IC50 in Molar), read-out: LNCaP-AR-wt ANT pIC50 (converted)
[4] = agonist mode (buffer, no R-1881), -Log10(EC50 in Molar), read-out: LNCaP-AR-wt AG pEC50 (converted)

Row | Compound | EC50 [1] [nM] | Emax [1] [%] | IC50 [2, 3] [nM] | Emax [2] [%] | EC50 [1, 4] [nM] | IC50 [2] [nM]
1 | N#Cc1ccc(N2C(=O)C3(CCC3)N(c3cnc(OC4CCNCC4)nc3)C2=S)cc1C(F)(F)F [Compound 15, 4-(8-Oxo-5-(2-(piperidin-4-yloxy)pyrimidin-5-yl)-6-thioxo-5,7-diazaspiro[3.4]octan-7-yl)-2-(trifluoromethyl)benzonitrile] | > 15100 | -0.2 | 158 | 102 | – | –
2 | CN1CCC(Oc2ncc(N3C(=S)N(c4ccc(C#N)c(C(F)(F)F)c4)C(=O)C34CCC4)cn2)CC1 [Compound 16, 4-(5-(2-((1-Methylpiperidin-4-yl)oxy)pyrimidin-5-yl)-8-oxo-6-thioxo-5,7-diazaspiro[3.4]octan-7-yl)-2-(trifluoromethyl)benzonitrile] | > 15100 | -0.1 | 209 | 102 | – | –
3 | Cc1cc(N2C(=O)C3(CCC3)N(c3ccc(OC4CCN(C)CC4)cc3)C2=S)ccc1C#N [Compound 17, 2-Methyl-4-(5-(4-((1-methylpiperidin-4-yl)oxy)phenyl)-8-oxo-6-thioxo-5,7-diazaspiro[3.4]octan-7-yl)benzonitrile] | – | -0.1 | 170 | 105 | > 15100 | –
4 | Cc1cc(N2C(=O)C3(CCC3)N(c3ccc(OC4CCN(C)CC4)nc3)C2=S)ccc1C#N [Compound 18, 2-Methyl-4-(5-(6-((1-methylpiperidin-4-yl)oxy)pyridin-3-yl)-8-oxo-6-thioxo-5,7-diazaspiro[3.4]octan-7-yl)benzonitrile] | – | 0.6 | 36.3 | 99.4 | > 15100 | –
5 | COc1cc(N2C(=O)C3(CCC3)N(c3ccc(OC4CCN(C)CC4)cc3)C2=S)ccc1C#N [Compound 19, 2-Methoxy-4-(5-(4-((1-methylpiperidin-4-yl)oxy)phenyl)-8-oxo-6-thioxo-5,7-diazaspiro[3.4]octan-7-yl)benzonitrile] | > 15100 | -0.1 | 141 | 105 | – | –
6 | COc1cc(N2C(=O)C3(CCC3)N(c3ccc(OC4CCN(C)CC4)nc3)C2=S)ccc1C#N [Compound 20, 2-Methoxy-4-(5-(6-((1-methylpiperidin-4-yl)oxy)pyridin-3-yl)-8-oxo-6-thioxo-5,7-diazaspiro[3.4]octan-7-yl)benzonitrile] | > 15100 | -0.1 | 214 | 100 | – | –
7 | N#Cc1ccc(N2C(=O)C3(CCC3)N(c3ccc(OC4CCNCC4)cc3)C2=S)cc1Cl [Compound 21, 2-Chloro-4-(8-oxo-5-(4-(piperidin-4-yloxy)phenyl)-6-thioxo-5,7-diazaspiro[3.4]octan-7-yl)benzonitrile] | > 15100 | 0.1 | 331 | 106 | – | –
8 | CN1CCC(Oc2ccc(N3C(=S)N(c4ccc(C#N)c(Cl)c4)C(=O)C34CCC4)cc2)CC1 [Compound 22, 2-Chloro-4-(5-(4-((1-methylpiperidin-4-yl)oxy)phenyl)-8-oxo-6-thioxo-5,7-diazaspiro[3.4]octan-7-yl)benzonitrile] | > 15100 | -0.2 | – | 98.4 | – | 245
9 | N#Cc1ccc(N2C(=O)C3(CCC3)N(c3ccc(OC4CCNCC4)nc3)C2=S)cc1Cl [Compound 23, 2-Chloro-4-(8-oxo-5-(6-(piperidin-4-yloxy)pyridin-3-yl)-6-thioxo-5,7-diazaspiro[3.4]octan-7-yl)benzonitrile hydrochloride] | > 15100 | 0.9 | – | 105 | – | 67.6
10 | CN1CCC(Oc2ccc(N3C(=S)N(c4ccc(C#N)c(Cl)c4)C(=O)C34CCC4)cn2)CC1 [Compound 24, 2-Chloro-4-(5-(6-((1-methylpiperidin-4-yl)oxy)pyridin-3-yl)-8-oxo-6-thioxo-5,7-diazaspiro[3.4]octan-7-yl)benzonitrile hydrochloride] | > 15100 | 0.3 | – | 102 | – | 95.5
